Assays:
Abutilon theophrasti = experiment: Post-emergence herbicidal activity, ABUTH; format: in vivo; settings: dosage rate 80 g/ha, scored visually after approx. 3 weeks vs untreated controls
Method: (§1) Seeds of monocotyledonous or dicotyledonous weed plants or crop plants are placed in sandy loam in wood fiber pots, covered with soil and grown in the greenhouse under good growth conditions. 2 to 3 weeks after sowing, the test plants are treated in the one-leaf stage. The compounds according to the invention, which are formulated as wettable powders (WP), are then sprayed onto the green plant parts in the form of an aqueous suspension or emulsion with a water application rate of 600 I/ha (converted) with addition of 0.2% of wetter. After the test plants have been left to stand in the greenhouse for approximately 3 weeks under optimal growth conditions, the activity of the preparation is scored visually in comparison with untreated controls (herbicidal activity in percent (%): 100% activity=plants have died, 0% activity=like control plants).

Amaranthus retroflexus = experiment: Post-emergence herbicidal activity, AMARE; format: in vivo; settings: dosage rate 80 g/ha, scored visually after approx. 3 weeks vs untreated controls
Method: as §1

Lolium multiflorum = experiment: Post-emergence herbicidal activity, LOLMU; format: in vivo; settings: dosage rate 80 g/ha, scored visually after approx. 3 weeks vs untreated controls
Method: as §1

Viola tricolor = experiment: Post-emergence herbicidal activity, VIOTR; format: in vivo; settings: dosage rate 80 g/ha, scored visually after approx. 3 weeks vs untreated controls
Method: as §1

Alopecurus myosuroides [1] = experiment: Pre-emergence herbicidal activity, ALOMY; format: in vivo; settings: 80 g/ha, WP formulation, scored visually after approximately 3 weeks vs untreated controls (100% = plants have died)
Description: (§2) Seeds of monocotyledonous or dicotyledonous weed plants or crop plants are placed in sandy loam in wood fiber pots and covered with soil. The compounds according to the invention, which are formulated as wettable powders (WP) are then applied to the surface of the soil cover in the form of an aqueous suspension or emulsion with a water application rate of 600 I/ha (converted), with addition of 0.2% wetter. After the treatment, the pots are placed in the greenhouse and maintained under good growth conditions for the test plants. After approximately 3 weeks, the activity of the preparation is scored visually in comparison with untreated controls (herbicidal activity in percent (%): 100% activity=plants have died, 0% activity=like control plants).

Pharbitis purpurea = experiment: Post-emergence herbicidal activity, PHBPU; format: in vivo, Pharbitis/Ipomoea purpurea; settings: dosage rate 80 g/ha, scored visually after approx. 3 weeks vs untreated controls
Method: as §1

Stellaria media [2] = experiment: Post-emergence herbicidal activity, STEME; format: in vivo; settings: dosage rate 80 g/ha, scored visually after approx. 3 weeks vs untreated controls
Method: as §1

Echinochloa crus-galli = experiment: Post-emergence herbicidal activity, ECHCG; format: in vivo; settings: dosage rate 80 g/ha, scored visually after approx. 3 weeks vs untreated controls
Method: as §1

Matricaria inodora = experiment: Pre-emergence herbicidal activity, MATIN; format: in vivo; settings: 80 g/ha, WP formulation, scored visually after approximately 3 weeks vs untreated controls (100% = plants have died)
Description: as §2

Stellaria media [3] = experiment: Pre-emergence herbicidal activity, STEME; format: in vivo; settings: 80 g/ha, WP formulation, scored visually after approximately 3 weeks vs untreated controls (100% = plants have died)
Description: as §2

Alopecurus myosuroides [4] = experiment: Post-emergence herbicidal activity, ALOMY; format: in vivo; settings: dosage rate 80 g/ha, scored visually after approx. 3 weeks vs untreated controls
Method: as §1

logp = format: physicochemical

| SMILES | herbicidal activity ABUTH (Abutilon theophrasti) [%] | herbicidal activity AMARE (Amaranthus retroflexus) [%] | herbicidal activity LOLMU (Lolium multiflorum) [%] | herbicidal activity VIOTR (Viola tricolor) [%] | herbicidal activity in percent, ALOMY (Alopecurus myosuroides [1]) [%] | herbicidal activity PHBPU (Pharbitis purpurea) [%] | herbicidal activity STEME (Stellaria media [2]) [%] | herbicidal activity ECHCG (Echinochloa crus-galli) [%] | herbicidal activity in percent, MATIN (Matricaria inodora) [%] | herbicidal activity in percent, STEME (Stellaria media [3]) [%] | herbicidal activity ALOMY (Alopecurus myosuroides [4]) [%] | melting point [°C] | logP (logp) |
| --- | --- | --- | --- | --- | --- | --- | --- | --- | --- | --- | --- | --- | --- |
| COc1cc(Cl)nc(NC(=O)NS(=O)(=O)c2ncccc2C2=NOCC2)n1 [Ia-1, N-[(4-Chloro-6-methoxypyrimidin-2-yl)carbamoyl]-3-(4,5-dihydroisoxazol-3-yl)-pyridine-2-sulfonamide] | 90 | 90 | 90 | 80 | 90 | 100 | 90 | 100 | 90 | 90 | 80 |  |  |
| COc1cc(OC)nc(NC(=O)NS(=O)(=O)c2ncccc2C2=NOCC2)n1 [Ia-2] | 100 | 90 | 90 | 90 | 90 | 90 | 90 | 100 | 90 | 90 | 80 |  |  |
| Cc1cc(C)nc(NC(=O)NS(=O)(=O)c2ncccc2C2=NOCC2)n1 [Ia-3] | 90 | 100 | 80 | 80 | 80 | 90 | 90 | 90 | 80 | 80 | 80 |  |  |
| COc1cc(SC)nc(NC(=O)NS(=O)(=O)c2ncccc2C2=NOCC2)n1 [Ia-4] | 80 | 100 |  | 80 | 80 | 100 | 90 | 90 | 90 | 90 | 80 |  |  |
| COc1nc(NC(=O)NS(=O)(=O)c2ncccc2C2=NOCC2)nc(OC)n1 [Ia-6] |  | 80 | 90 |  |  |  |  |  |  |  |  |  |  |
| COc1nc(C)nc(NC(=O)NS(=O)(=O)c2ncccc2C2=NOCC2)n1 [Ia-7] | 80 |  | 90 |  |  |  |  |  |  |  | 80 |  |  |
| CN(C)c1nc(NC(=O)NS(=O)(=O)c2ncccc2C2=NOCC2)nc(OCC(F)(F)F)n1 [Ia-8] | 80 |  | 90 |  |  |  |  | 80 |  |  |  |  |  |
| COc1cc(C)nc(NC(=O)NS(=O)(=O)c2ncccc2C2=NOCC2)n1 [Ia-9] | 80 |  | 90 |  |  | 90 | 90 |  |  | 80 | 80 |  |  |
| COc1cc(OC)nc(NC(=O)NS(=O)(=O)c2ncccc2C2=NOC(C(C)C)C2)n1 (centres unmarked) [Ia-10] | 90 | 100 | 90 | 90 | 80 | 80 | 90 | 100 | 80 | 80 | 90 |  |  |
| COc1cc(OC)nc(NC(=O)NS(=O)(=O)c2ncccc2C2=NOC(C)C2)n1 (centres unmarked) [Ia-11] | 90 | 100 | 100 | 90 | 90 | 90 | 100 | 100 | 80 | 80 | 90 |  |  |
| COc1cc(OC)nc(NC(=O)NS(=O)(=O)c2ncccc2C2=NOC(C)(C)C2)n1 [Ia-13] | 90 | 90 | 90 | 90 | 90 | 90 | 100 | 90 | 80 | 80 | 90 |  |  |
| COc1cc(Cl)nc(NC(=O)NS(=O)(=O)c2ncccc2C2=NOC(C)(C)C2)n1 [Ia-14] |  | 90 |  | 90 |  |  | 80 | 80 |  |  |  |  |  |
| COc1cc(C)nc(NC(=O)NS(=O)(=O)c2ncccc2C2=NOC(C)C2)n1 (centres unmarked) [Ia-15] |  | 90 | 80 | 80 | 80 |  | 80 | 80 | 80 |  | 90 |  |  |
| COc1cc(Cl)nc(NC(=O)NS(=O)(=O)c2ncccc2C2=NOC(C)C2)n1 (centres unmarked) [Ia-16] |  | 90 | 90 | 80 | 80 |  | 100 | 80 | 80 |  | 80 |  |  |
| CCCC1CC(c2cccnc2S(=O)(=O)NC(=O)Nc2nc(C)cc(OC)n2)=NO1 (centres unmarked) [Ia-17] |  | 80 | 80 |  | 90 |  |  |  |  |  | 80 |  |  |
| CCC1CC(c2cccnc2S(=O)(=O)NC(=O)Nc2nc(C)nc(OC)n2)=NO1 (centres unmarked) [Ia-18] |  |  |  |  |  |  |  | 80 |  |  |  |  |  |
| CCC1CC(c2cccnc2S(=O)(=O)NC(=O)Nc2nc(C)cc(OC)n2)=NO1 (centres unmarked) [Ia-19] |  | 80 | 80 | 80 | 80 | 80 | 80 | 80 |  | 80 | 90 |  |  |
| CCC1CC(c2cccnc2S(=O)(=O)NC(=O)Nc2nc(Cl)cc(OC)n2)=NO1 (centres unmarked) [Ia-20] |  | 80 | 80 | 80 | 80 |  | 80 | 80 |  |  | 80 |  |  |
| CCCC1CC(c2cccnc2S(=O)(=O)NC(=O)Nc2nc(OC)cc(OC)n2)=NO1 (centres unmarked) [Ia-21] | 80 | 80 | 80 | 80 |  | 80 | 80 | 80 | 80 | 80 | 80 |  |  |
| COc1cc(C)nc(NC(=O)NS(=O)(=O)c2ncccc2C2=NOC(C(C)C)C2)n1 (centres unmarked) [Ia-22] | 80 |  | 80 | 80 |  | 80 |  |  |  | 100 | 80 |  |  |
| CCCC1CC(c2cccnc2S(=O)(=O)NC(=O)Nc2nc(C)nc(OC)n2)=NO1 (centres unmarked) [Ia-23] |  |  |  |  |  |  |  |  | 80 |  |  |  |  |
| CCC1CC(c2cccnc2S(=O)(=O)NC(=O)Nc2nc(OC)cc(OC)n2)=NO1 (centres unmarked) [Ia-24] | 80 | 80 |  |  | 90 | 90 | 90 | 100 | 90 | 90 |  |  |  |
| Clc1ncccc1C1=NOCC1 [XIa-1, 2-Chloro-3-(4,5-dihydroisoxazol-3-yl)pyridine] |  |  |  |  |  |  |  |  |  |  |  | 183 to 185 | 0.97 |

Source: US20110028318A1, “HERBICIDAL COMPOUNDS BASED ON N-AZINYL-N'-PYRIDYLSULPHONYLUREAS” (Bayer CropScience AG, priority 2007, published 2011)
